The values below come from patent publication US10696708B2, “Substituted nucleosides, nucleotides and analogs thereof” (Janssen BioPharma, Inc., priority 2013, dated 2020).

Assay [1] has as its system human metapneumovirus. The experiment in a line: Human Metapneumovirus (hMPV) TCID50 assay. The assay is classed as cell-based.
Assay [2] deals with human PIV type 3. In words: Parainfluenza Virus-3 (PIV-3) plaque assay. It counts as cell-based.
The test system of assay [3] is RSV subgenomic replicon 395 HeLa. In words: RSV subgenomic replicon assay (Renilla luciferase). It counts as cell-based. Particulars: human respiratory syncytial virus, 168 h. (In general: In antiviral work, replicon cells carry a viral genome segment that copies itself.)
In assay [4] the target is RSV polymerase (Human respiratory syncytial virus A, UniProt P28887). The experiment in a line: Standard RSV polymerase assay. The assay is classed as biochemical. Here is the method: Standard RSV polymerase assays were conducted in the presence of 3 μL extract of RSV-infected cells in a reaction buffer containing 50 mM tris-acetate pH 8, 120 mM K-acetate, 4.5 mM MgCl2, 5% glycerol, 2 mM EDTA, 50 ug/mL BSA, and 3 mM DTT. Varying concentration of test compounds were used to initiate RNA synthesis for 120 mins at 30° C., and radioactive 33P GTP (15 uCi) was used as tracer. The reaction was stopped by adding 50 mM EDTA, and RNA samples were purified through G-50 size exclusion spin columns and phenol-chloroform extraction. The radio-labeled RNA products were resolved by electrophoresis on a 6% polyacrylamide TBE gel, and visualized and quantitated after being exposed on a phosphorlmager screen. Polymerase inhibition experiments (IC50) were conducted the same way in the presence of increasing concentration of test compounds.
RSV polymerase, sequence (P28887 whole entry, looked up): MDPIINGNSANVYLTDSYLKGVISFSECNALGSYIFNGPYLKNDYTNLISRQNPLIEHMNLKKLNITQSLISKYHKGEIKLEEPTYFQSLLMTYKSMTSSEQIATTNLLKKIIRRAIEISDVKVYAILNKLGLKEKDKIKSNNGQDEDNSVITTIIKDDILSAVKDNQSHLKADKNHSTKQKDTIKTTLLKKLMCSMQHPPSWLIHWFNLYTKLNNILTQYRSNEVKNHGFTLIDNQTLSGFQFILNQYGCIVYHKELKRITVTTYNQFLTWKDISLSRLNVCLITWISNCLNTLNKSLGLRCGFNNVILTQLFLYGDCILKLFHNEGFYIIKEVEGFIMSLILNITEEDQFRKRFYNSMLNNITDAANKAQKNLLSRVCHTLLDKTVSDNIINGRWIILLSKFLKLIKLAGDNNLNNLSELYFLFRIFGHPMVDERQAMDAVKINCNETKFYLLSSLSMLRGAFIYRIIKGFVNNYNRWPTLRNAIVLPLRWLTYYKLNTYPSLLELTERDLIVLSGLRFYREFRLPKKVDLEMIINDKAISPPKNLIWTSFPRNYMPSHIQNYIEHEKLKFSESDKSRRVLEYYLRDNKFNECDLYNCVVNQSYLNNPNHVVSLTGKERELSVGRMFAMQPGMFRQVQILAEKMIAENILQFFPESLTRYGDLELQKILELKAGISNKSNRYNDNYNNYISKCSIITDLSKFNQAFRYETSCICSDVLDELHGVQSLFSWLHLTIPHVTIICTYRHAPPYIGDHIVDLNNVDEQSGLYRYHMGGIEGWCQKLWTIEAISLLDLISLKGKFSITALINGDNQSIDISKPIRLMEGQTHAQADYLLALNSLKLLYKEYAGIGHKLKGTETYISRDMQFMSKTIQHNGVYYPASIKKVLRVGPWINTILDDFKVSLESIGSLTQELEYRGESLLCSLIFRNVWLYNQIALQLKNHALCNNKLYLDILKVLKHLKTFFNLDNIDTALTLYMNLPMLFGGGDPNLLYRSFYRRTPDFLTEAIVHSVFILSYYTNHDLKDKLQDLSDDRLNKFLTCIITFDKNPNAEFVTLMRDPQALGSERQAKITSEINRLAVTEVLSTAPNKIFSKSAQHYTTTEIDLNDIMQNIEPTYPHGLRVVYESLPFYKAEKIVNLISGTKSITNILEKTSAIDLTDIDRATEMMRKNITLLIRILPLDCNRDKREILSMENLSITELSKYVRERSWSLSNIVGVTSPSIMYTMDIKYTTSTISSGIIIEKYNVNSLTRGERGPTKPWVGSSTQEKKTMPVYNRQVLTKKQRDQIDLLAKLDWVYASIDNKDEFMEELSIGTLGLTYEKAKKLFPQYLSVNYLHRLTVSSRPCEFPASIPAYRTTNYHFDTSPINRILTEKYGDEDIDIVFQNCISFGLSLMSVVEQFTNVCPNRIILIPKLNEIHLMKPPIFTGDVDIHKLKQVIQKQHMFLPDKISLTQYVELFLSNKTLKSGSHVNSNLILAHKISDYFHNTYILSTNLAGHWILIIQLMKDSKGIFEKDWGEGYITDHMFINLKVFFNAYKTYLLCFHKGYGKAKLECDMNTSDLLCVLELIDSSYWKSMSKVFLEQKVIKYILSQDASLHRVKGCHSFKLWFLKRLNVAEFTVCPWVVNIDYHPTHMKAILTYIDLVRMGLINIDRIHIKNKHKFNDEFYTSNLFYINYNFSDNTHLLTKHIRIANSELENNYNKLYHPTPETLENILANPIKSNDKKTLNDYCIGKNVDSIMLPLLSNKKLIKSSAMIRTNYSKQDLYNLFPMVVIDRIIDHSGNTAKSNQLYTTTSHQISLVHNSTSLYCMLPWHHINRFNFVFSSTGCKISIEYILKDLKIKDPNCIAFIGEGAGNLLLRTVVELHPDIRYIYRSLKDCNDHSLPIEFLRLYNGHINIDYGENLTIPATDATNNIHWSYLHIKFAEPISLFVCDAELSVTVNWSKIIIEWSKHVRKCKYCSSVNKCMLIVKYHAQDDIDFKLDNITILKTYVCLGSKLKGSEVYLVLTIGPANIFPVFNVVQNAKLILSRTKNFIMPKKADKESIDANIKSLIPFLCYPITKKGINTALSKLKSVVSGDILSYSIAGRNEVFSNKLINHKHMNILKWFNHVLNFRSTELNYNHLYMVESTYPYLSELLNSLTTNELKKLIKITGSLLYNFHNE

The mark [5] stands for this setting: 168 h, LLC-MK2 cells, 7 days infection, viral load by TCID50 assay, Table C1, read-out: EC50 against human metapneumovirus.
The mark [6] stands for this setting: MA104, MA-104 cells, 72 h infection, viral load by plaque assay, Table B1, read-out: EC50 against PIV-3.
Where [7] appears, read: RSV replicon 395 HeLa cells, 7 days incubation, compounds listed in Table A1, read-out: EC50.
Setting [8] is: RSV replicon 395 HeLa cells, 7 days incubation, compounds listed in Table A2 and other tested compounds, read-out: EC50.

Like-named read-outs stand apart in the source and are kept apart here.

In the case of `[N-]=[N+]=NC[C@]1(CO)O[C@@H](n2ccc(N)nc2=O)[C@H](F)[C@@H]1O` [Compound 2A], the EC50 – broadly, the concentration that produces a half-maximal response – was under 20 µM in assay [1] (setting [5]), under 20 µM in assay [2] (setting [6]) and under 1 µM in assay [3] (setting [7]).

Consider `[N-]=[N+]=NC[C@]1(COP(=O)(O)OP(=O)(O)OP(=O)(O)O)O[C@@H](n2ccc(=O)[nH]c2=O)[C@H](F)[C@@H]1O` [Compound 3A], for which the IC50 (in general, the point on the concentration scale where inhibition reaches its midpoint) in assay [4] is under 1 µM.

For the molecule `[N-]=[N+]=NC[C@]1(COP(=O)(O)OP(=O)(O)OP(=O)(O)O)O[C@@H](n2ccc(N)nc2=O)[C@H](F)[C@@H]1O` [Compound 4A], in assay [4], the IC50 was under 1 µM.

As for `NC[C@]1(COP(=O)(O)OP(=O)(O)OP(=O)(O)O)O[C@@H](n2ccc(=O)[nH]c2=O)[C@H](F)[C@@H]1O` [Compound 5A], the half-maximal inhibitory concentration (IC50) in assay [4] lay in the range of 1 to 50 µM.

`NC[C@]1(COP(=O)(O)OP(=O)(O)OP(=O)(O)O)O[C@@H](n2ccc(N)nc2=O)[C@H](F)[C@@H]1O` [Compound 6A] had an IC50 in assay [4] of 1 to 50 µM.

For `[N-]=[N+]=NC[C@]1(CO)O[C@@H](n2cnc3c(=O)[nH]c(N)nc32)[C@H](F)[C@@H]1O` [Compound 7A], the EC50 in assay [1] (setting [5]) is under 20 µM; in assay [3] (setting [8]) it was 1 to 50 µM.

`[N-]=[N+]=NC[C@]1(COP(=O)(O)OP(=O)(O)OP(=O)(O)O)O[C@@H](n2cnc3c(N)ncnc32)[C@H](F)[C@@H]1O` [Compound 11A] displayed a 50% inhibitory concentration (IC50) in assay [4] of under 1 µM.

On to `NC[C@]1(COP(=O)(O)OP(=O)(O)OP(=O)(O)O)O[C@@H](n2cnc3c(N)ncnc32)[C@H](F)[C@@H]1O` [Compound 12A], for which the IC50 in assay [4] was under 1 µM.

Regarding `CC(C)C(=O)OC[C@@]1(CN=[N+]=[N-])O[C@@H](n2ccc(N)nc2=O)[C@H](F)[C@@H]1OC(=O)C(C)C` [Compound 14A], the concentration giving a half-maximal response (EC50) in assay [1] (setting [5]) is under 20 µM; in assay [2] (setting [6]) it was under 20 µM; in assay [3] (setting [7]), under 1 µM.

For the molecule `CCC(=O)OC[C@@]1(CN=[N+]=[N-])O[C@@H](n2ccc(N)nc2=O)[C@H](F)[C@@H]1OC(=O)CC` [Compound 15A], the figures for the EC50 in assay [1] (setting [5]), in assay [2] (setting [6]) and in assay [3] (setting [7]) were under 20 µM, under 20 µM and under 1 µM, respectively.

Take `CCCCC(=O)OC[C@@]1(CN=[N+]=[N-])O[C@@H](n2ccc(N)nc2=O)[C@H](F)[C@@H]1OC(=O)CCCC` [Compound 16A]: the concentration giving a half-maximal response (EC50) in assay [1] (setting [5]) is under 20 µM; in assay [2] (setting [6]), under 20 µM; in assay [3] (setting [7]), under 1 µM.

As for `CC(C)OC(=O)OCOP(=O)(OCOC(=O)OC(C)C)OC[C@@]1(CN=[N+]=[N-])O[C@@H](n2ccc(=O)[nH]c2=O)[C@H](F)[C@@H]1O` [Compound 17A], the half-maximal effective concentration (EC50) in assay [1] (setting [5]) was under 20 µM; in assay [2] (setting [6]), under 20 µM; in assay [3] (setting [8]), 1 to 50 µM.

Consider `CC(C)OC(=O)[C@H](C)NP(=O)(OC[C@@]1(CN=[N+]=[N-])O[C@@H](n2ccc(=O)[nH]c2=O)[C@H](F)[C@@H]1O)Oc1ccccc1` (stereo partly drawn) [Compound 18A], for which the EC50 is under 20 µM in assay [1] (LLC-MK2, 168 h, read-out: EC50 against human metapneumovirus); under 20 µM in assay [2] (MA104, 72 h, read-out: EC50 against PIV-3); 1 to 50 µM in assay [3] (HeLa).

As for `CC(C)(C)C(=O)SCCOP(=O)(OCCSC(=O)C(C)(C)C)OC[C@@]1(CN=[N+]=[N-])O[C@@H](n2ccc(=O)[nH]c2=O)[C@H](F)[C@@H]1O` [Compound 19A], the half-maximal effective concentration (EC50) was under 20 µM in assay [1] (setting [5]), under 20 µM in assay [2] (setting [6]) and 1 to 50 µM in assay [3] (setting [8]).

For the molecule `CC(C)OC(=O)[C@H](C)NP(=O)(N[C@@H](C)C(=O)OC(C)C)OC[C@@]1(CN=[N+]=[N-])O[C@@H](n2ccc(=O)[nH]c2=O)[C@H](F)[C@@H]1O` [Compound 20A], the EC50 in assay [3] (setting [8]) lay within 1 to 50 µM.

As for `CC(C)(CO)C(=O)SCCOP(=O)(OCCSC(=O)C(C)(C)CO)OC[C@@]1(CN=[N+]=[N-])O[C@@H](n2ccc(=O)[nH]c2=O)[C@H](F)[C@@H]1O` [Compound 21A], the half-maximal effective concentration (EC50) in assay [3] (HeLa) was in the range of 1 to 50 µM.

As to `CC(C)OC(=O)C(C)NP(=O)(OCCSC(=O)C(C)(C)CO)OC[C@@]1(CN=[N+]=[N-])O[C@@H](n2ccc(=O)[nH]c2=O)[C@H](F)[C@@H]1O` (stereo partly drawn) [Compound 22A], the concentration for a half-maximal effect (EC50) in assay [3] (setting [8]) lay within 1 to 50 µM.

Molecule `CC(C)OC(=O)CCc1ccccc1OP(=O)(N[C@@H](C)C(=O)OC(C)C)OC[C@@]1(CN=[N+]=[N-])O[C@@H](n2ccc(=O)[nH]c2=O)[C@H](F)[C@@H]1O` (stereo partly drawn) [Compound 23A] showed an EC50 in assay [3] (HeLa) of 1 to 50 µM.

With `CC(C)(C)C(=O)OCOP(=O)(OCOC(=O)C(C)(C)C)OC[C@@]1(CN=[N+]=[N-])O[C@@H](n2ccc(=O)[nH]c2=O)[C@H](F)[C@@H]1O` [Compound 28A], the half-maximal effective concentration (EC50) in assay [1] (setting [5]) is under 20 µM; in assay [2] (setting [6]), under 20 µM; in assay [3] (setting [8]), 1 to 50 µM.
